Reference: patent US20260022142A1, “MACROCYCLIC IMMUNOMODULATORS” (Bristol-Myers Squibb Company, priority 2022, published 2026)
Bridge positions count the residues as written; N and C are the ends. Square brackets hold non-standard residues; d marks the D form. Peptide text beside a SMILES is read from it. * marks the point of attachment. ξ: configuration not given here. Phe(3-CF3) = N[C@@H](Cc1cccc(C(F)(F)F)c1)C(=O)O; Phe(4-COOH) = N[C@@H](Cc1ccc(C(=O)O)cc1)C(=O)O; Bip = N[C@@H](Cc1ccc(-c2ccccc2)cc1)C(=O)O; NH(CH2)14COOH = O=C(O)CCCCCCCCCCCCCCN*; Phe(3-Me) = Cc1cccc(C[C@H](N)C(=O)O)c1; Phe(4-F) = N[C@@H](Cc1ccc(F)cc1)C(=O)O; NH(CH2)12COOH = O=C(O)CCCCCCCCCCCCN*; Val(3-OH) = CC(C)(O)[C@H](N)C(=O)O; Cha = N[C@@H](CC1CCCCC1)C(=O)O; Thr(3ξ) = CC(O)[C@H](N)C(=O)O; dDab = NCC[C@@H](N)C(=O)O; Carboxymethyl = O=C(O)C*; Nle = CCCC[C@H](N)C(=O)O; Orn = NCCC[C@H](N)C(=O)O; Aun = NCCCCCCCCCCC(=O)O; Dab = NCC[C@H](N)C(=O)O; AEEA = NCCOCCOCC(=O)O

Target: T1, PD-1/PD-L1 interaction (PE-labeled human PD-L1-Ig binding to Jurkat cell line over-expressing human PD-1) (Homo sapiens, UniProt Q15116)
T1 construct: expressed in transfected cells; host or cells: Jurkat
Assay: Jurkat-PD-1 Cell Binding High-Content Screening Assay (CBA)
Type: cell-based
Details: Jurkat cell line over-expressing human PD-1; PE-labeled PD-L1-Ig 20 nM final; read-out: Jurkat hPD1-PDL1 IC50
In short: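 First, compound is added to PD-1-expressing Jurkat cells in serum-containing DMEM and left 2 h at 37° C. Next, PE-conjugated PD-L1-Ig is introduced at 20 nM final concentration for 1 hour. Finally, cells are fixed in 4% paraformaldehyde with Hoechst 33342, washed and imaged.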

T1 sequence (Q15116 25-288): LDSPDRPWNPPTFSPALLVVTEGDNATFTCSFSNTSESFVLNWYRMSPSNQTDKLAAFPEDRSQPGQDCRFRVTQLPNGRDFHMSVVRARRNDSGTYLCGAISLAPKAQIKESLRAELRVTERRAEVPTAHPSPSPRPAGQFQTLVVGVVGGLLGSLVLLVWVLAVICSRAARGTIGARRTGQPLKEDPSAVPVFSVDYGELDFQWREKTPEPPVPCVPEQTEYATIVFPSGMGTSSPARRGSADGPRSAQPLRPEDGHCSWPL

IC50 [nM]	SMILES
6.9	Cc1cccc(C[C@@H]2NC(=O)[C@H](CC(=O)O)NC(=O)[C@H](Cc3ccc(OCC(=O)O)cc3)NC(=O)[C@H](CCN)NC(=O)CSC[C@@H](C(=O)N[C@@H](CCN)C(=O)NCCOCCOCC(=O)NCCOCCOCC(=O)NCCCCCCCCCCCCC(=O)O)NC(=O)[C@H](CO)NC(=O)[C@H](C(C)(C)O)NC(=O)[C@H](CC3CCCCC3)NC(=O)[C@H](CCN)NC(=O)[C@@H](CC(C)C)NC(=O)[C@H](CCCN)NC(=O)[C@H](Cc3ccc(OCC(=O)O)cc3)NC(=O)[C@H](Cc3ccc(-c4ccccc4)cc3)NC(=O)[C@H](Cc3ccc(OCC(=O)O)cc3)NC2=O)c1 [Compound 3813] ({CH2CO}-[Dab]Y(Carboxymethyl)D[Phe(3-Me)]Y(Carboxymethyl)[Bip]Y(Carboxymethyl)[Orn][dL][Dab][Cha][Val(3-OH)]SC[Dab][AEEA][AEEA]-{NH(CH2)12COOH}; thioether N-14)
53.4	Cc1cccc(C[C@@H]2NC(=O)[C@H](CC(=O)O)NC(=O)[C@H](Cc3ccc(OCC(=O)O)cc3)NC(=O)[C@H](CCN)NC(=O)CSC[C@@H](C(=O)N[C@@H](CCN)C(=O)NCCOCCOCC(=O)N[C@@H](CCC(=O)O)C(=O)NCCCCCCCCCCCCCCC(=O)O)NC(=O)[C@H](CO)NC(=O)[C@H](C(C)(C)O)NC(=O)[C@H](CC3CCCCC3)NC(=O)[C@H](CCN)NC(=O)[C@@H](CC(C)C)NC(=O)[C@H](CCCN)NC(=O)[C@H](Cc3ccc(OCC(=O)O)cc3)NC(=O)[C@H](Cc3ccc(-c4ccccc4)cc3)NC(=O)[C@H](Cc3ccc(OCC(=O)O)cc3)NC2=O)c1 [Compound 3814] ({CH2CO}-[Dab]Y(Carboxymethyl)D[Phe(3-Me)]Y(Carboxymethyl)[Bip]Y(Carboxymethyl)[Orn][dL][Dab][Cha][Val(3-OH)]SC[Dab][AEEA]E-{NH(CH2)14COOH}; thioether N-14)
21.7	Cc1cccc(C[C@@H]2NC(=O)[C@H](CC(=O)O)NC(=O)[C@H](Cc3ccc(OCC(=O)O)cc3)NC(=O)[C@H](CCN)NC(=O)CSC[C@@H](C(=O)N[C@@H](CCN)C(=O)NCCOCCOCC(=O)NCCOCCOCC(=O)NCCCCCCCCCCCCCCC(=O)O)NC(=O)[C@H](CO)NC(=O)[C@H](C(C)(C)O)NC(=O)[C@H](CC3CCCCC3)NC(=O)[C@H](CCN)NC(=O)[C@@H](CC(C)C)NC(=O)[C@H](CCCN)NC(=O)[C@H](Cc3ccc(OCC(=O)O)cc3)NC(=O)[C@H](Cc3ccc(-c4ccccc4)cc3)NC(=O)[C@H](Cc3ccc(OCC(=O)O)cc3)NC2=O)c1 [Compound 3815] ({CH2CO}-[Dab]Y(Carboxymethyl)D[Phe(3-Me)]Y(Carboxymethyl)[Bip]Y(Carboxymethyl)[Orn][dL][Dab][Cha][Val(3-OH)]SC[Dab][AEEA][AEEA]-{NH(CH2)14COOH}; thioether N-14)
26	COC[C@H](NC(=O)COCCOCCNC(=O)[C@H](CCN)NC(=O)[C@@H]1CSCC(=O)N[C@@H](CCN)C(=O)N[C@@H](Cc2ccc(OCC(=O)O)cc2)C(=O)N[C@@H](CC(=O)O)C(=O)N[C@@H](Cc2cccc(C)c2)C(=O)N[C@@H](Cc2ccc(OCC(=O)O)cc2)C(=O)N[C@@H](Cc2ccc(-c3ccccc3)cc2)C(=O)N[C@@H](Cc2ccc(OCC(=O)O)cc2)C(=O)N[C@@H](CCCN)C(=O)N[C@H](CC(C)C)C(=O)N[C@@H](CCN)C(=O)N[C@@H](CC2CCCCC2)C(=O)N[C@@H](C(C)(C)O)C(=O)N[C@@H](CO)C(=O)N1)C(=O)NCCCCCCCCCCCCC(=O)O [Compound 3816] ({CH2CO}-[Dab]Y(Carboxymethyl)D[Phe(3-Me)]Y(Carboxymethyl)[Bip]Y(Carboxymethyl)[Orn][dL][Dab][Cha][Val(3-OH)]SC[Dab][AEEA]S(Me)-{NH(CH2)12COOH}; thioether N-14)
57.6	Cc1cccc(C[C@@H]2NC(=O)[C@H](CC(=O)O)NC(=O)[C@H](Cc3ccc(OCC(=O)O)cc3)NC(=O)[C@H](Cc3ccc(F)cc3)NC(=O)CSC[C@@H](C(=O)N[C@@H](CCN)C(=O)NCCOCCOCC(=O)NCCOCCOCC(=O)NCCCCCCCCCCCCC(=O)O)NC(=O)[C@H](CO)NC(=O)[C@H](C(C)(C)O)NC(=O)[C@H](CC3CCCCC3)NC(=O)[C@H](Cc3cnc[nH]3)NC(=O)[C@@H](CC(C)C)NC(=O)[C@H](CCCN)NC(=O)[C@H](Cc3ccc(OCC(=O)O)cc3)NC(=O)[C@H](Cc3ccc(-c4ccccc4)cc3)NC(=O)[C@H](Cc3ccc(OCC(=O)O)cc3)NC2=O)c1 [Compound 3817] ({CH2CO}-[Phe(4-F)]Y(Carboxymethyl)D[Phe(3-Me)]Y(Carboxymethyl)[Bip]Y(Carboxymethyl)[Orn][dL]H[Cha][Val(3-OH)]SC[Dab][AEEA][AEEA]-{NH(CH2)12COOH}; thioether N-14)
3.9	CC(C)C[C@H]1NC(=O)[C@H](CCCN)NC(=O)[C@H](Cc2ccc(OCC(=O)O)cc2)NC(=O)[C@H](Cc2ccc(-c3ccccc3)cc2)NC(=O)[C@H](Cc2ccc(OCC(=O)O)cc2)NC(=O)[C@H](Cc2cccc(C(F)(F)F)c2)NC(=O)[C@H](CC(=O)O)NC(=O)[C@H](Cc2ccc(OCC(=O)O)cc2)NC(=O)[C@H](C(C)O)NC(=O)CSC[C@@H](C(=O)N[C@@H](CCN)C(=O)NCCCCCCCCCCC(=O)O)NC(=O)[C@H](CO)NC(=O)[C@H](C(C)(C)O)NC(=O)[C@H](CC2CCCCC2)NC(=O)[C@H](CCN)NC1=O (stereo partly drawn) [Compound 3818] ({CH2CO}-[Thr(3ξ)]Y(Carboxymethyl)D[Phe(3-CF3)]Y(Carboxymethyl)[Bip]Y(Carboxymethyl)[Orn][dL][Dab][Cha][Val(3-OH)]SC[Dab][Aun]-OH; thioether N-14)
6.8	CC(C)C[C@H]1NC(=O)[C@H](CCCN)NC(=O)[C@H](Cc2ccc(OCC(=O)O)cc2)NC(=O)[C@H](Cc2ccc(-c3ccccc3)cc2)NC(=O)[C@H](Cc2ccc(OCC(=O)O)cc2)NC(=O)[C@H](Cc2cccc(C(F)(F)F)c2)NC(=O)[C@H](CC(=O)O)NC(=O)[C@H](Cc2ccc(OCC(=O)O)cc2)NC(=O)[C@H](CCN)NC(=O)CSC[C@@H](C(=O)N[C@@H](CCN)C(=O)NCCCCCCCCCCC(=O)O)NC(=O)[C@H](C(C)O)NC(=O)[C@H](C(C)C)NC(=O)[C@H](CC2CCCCC2)NC(=O)[C@H](CCN)NC1=O (stereo partly drawn) [Compound 3820] ({CH2CO}-[Dab]Y(Carboxymethyl)D[Phe(3-CF3)]Y(Carboxymethyl)[Bip]Y(Carboxymethyl)[Orn][dL][Dab][Cha]V[Thr(3ξ)]C[Dab][Aun]-OH; thioether N-14)
4	CC(C)C[C@H]1NC(=O)[C@H](Cc2cnc[nH]2)NC(=O)[C@H](Cc2ccc(OCC(=O)O)cc2)NC(=O)[C@H](Cc2ccc(-c3ccccc3)cc2)NC(=O)[C@H](Cc2ccc(C(=O)O)cc2)NC(=O)[C@H](Cc2cccc(C(F)(F)F)c2)NC(=O)[C@H](CC(=O)O)NC(=O)[C@H](Cc2ccc(OCC(=O)O)cc2)NC(=O)[C@H](C(C)O)NC(=O)CSC[C@@H](C(=O)N[C@@H](CCN)C(=O)NCCCCCCCCCCC(=O)O)NC(=O)[C@H](C(C)O)NC(=O)[C@H](C(C)C)NC(=O)[C@H](CC2CCCCC2)NC(=O)[C@H](CCN)NC1=O (stereo partly drawn) [Compound 3821] ({CH2CO}-[Thr(3ξ)]Y(Carboxymethyl)D[Phe(3-CF3)][Phe(4-COOH)][Bip]Y(Carboxymethyl)H[dL][Dab][Cha]V[Thr(3ξ)]C[Dab][Aun]-OH; thioether N-14)
19.7	CCCC[C@@H]1NC(=O)[C@H](C(C)C)NC(=O)[C@H](CC2CCCCC2)NC(=O)[C@H](CCN)NC(=O)[C@@H](CC(C)C)NC(=O)[C@H](CCCN)NC(=O)[C@H](Cc2ccc(OCC(=O)O)cc2)NC(=O)[C@H](Cc2ccc(-c3ccccc3)cc2)NC(=O)[C@H](Cc2ccc(OCC(=O)O)cc2)NC(=O)[C@H](Cc2cccc(C(F)(F)F)c2)NC(=O)[C@H](CC(=O)O)NC(=O)[C@H](Cc2ccc(C(=O)O)cc2)NC(=O)[C@H](CCN)NC(=O)CSC[C@@H](C(=O)N[C@@H](CCN)C(=O)NCCCCCCCCCCC(=O)O)NC1=O [Compound 3825] ({CH2CO}-[Dab][Phe(4-COOH)]D[Phe(3-CF3)]Y(Carboxymethyl)[Bip]Y(Carboxymethyl)[Orn][dL][Dab][Cha]V[Nle]C[Dab][Aun]-OH; thioether N-14)
72.5	CC(C)C[C@H]1NC(=O)[C@H](CCCN)NC(=O)[C@H](Cc2ccc(OCC(=O)O)cc2)NC(=O)[C@H](Cc2ccc(-c3ccccc3)cc2)NC(=O)[C@H](Cc2ccc(OCC(=O)O)cc2)NC(=O)[C@H](Cc2cccc(C(F)(F)F)c2)NC(=O)[C@H](CC(=O)O)NC(=O)[C@H](Cc2ccc(OCC(=O)O)cc2)NC(=O)[C@H](CC2CCCCC2)NC(=O)CSC[C@@H](C(=O)N[C@H](CCN)C(=O)NCCOCCOCC(=O)NCCCCCCCCCCCCC(=O)O)NC(=O)[C@H](CC(=O)O)NC(=O)[C@H](C(C)C)NC(=O)[C@H](CC2CCCCC2)NC(=O)[C@H](CCN)NC1=O [Compound 3826] ({CH2CO}-[Cha]Y(Carboxymethyl)D[Phe(3-CF3)]Y(Carboxymethyl)[Bip]Y(Carboxymethyl)[Orn][dL][Dab][Cha]VDC[dDab][AEEA]-{NH(CH2)12COOH}; thioether N-14)
141	CCCC[C@@H]1NC(=O)CSC[C@@H](C(=O)N[C@H](CCN)C(=O)NCCOCCOCC(=O)NCCOCCOCC(=O)NCCCCCCCCCCCCC(=O)O)NC(=O)[C@H](CO)NC(=O)[C@H](C(C)(C)O)NC(=O)[C@H](CC2CCCCC2)NC(=O)[C@H](CCN)NC(=O)[C@@H](CC(C)C)NC(=O)[C@H](CCCN)NC(=O)[C@H](Cc2ccc(C(=O)O)cc2)NC(=O)[C@H](Cc2ccc(-c3ccccc3)cc2)NC(=O)[C@H](Cc2ccc(C(=O)O)cc2)NC(=O)[C@H](Cc2cccc(C(F)(F)F)c2)NC(=O)[C@H](CC(=O)O)NC(=O)[C@H](Cc2ccc(OCC(=O)O)cc2)NC1=O [Compound 3827] ({CH2CO}-[Nle]Y(Carboxymethyl)D[Phe(3-CF3)][Phe(4-COOH)][Bip][Phe(4-COOH)][Orn][dL][Dab][Cha][Val(3-OH)]SC[dDab][AEEA][AEEA]-{NH(CH2)12COOH}; thioether N-14)
